In experiment [1] the test system is B16-F1 cells. Put plainly: Antitumor effect in syngeneic mouse model bearing mouse melanoma cell line B16-F1. The note with it: relative tumor growth inhibition, B16-F1, oral. Type of experiment: in vivo. How it is done:
Test Example 4: Evaluation of Antitumor Effect in Syngeneic Mouse Model Bearing Mouse Melanoma Cell Line B16-F1
A cell suspension liquid prepared by suspending B16-F1 cells (ATCC, CRL-6323) in PBS at 2.0×10^6 cells/mL or 1.0×10^7 cells/mL was subcutaneously inoculated into 5-week-old female mice (C57BL/6J from Charles River Laboratories Japan, Inc.) in a volume of 50 μL. 5 days after the inoculation, the mice were grouped in such a manner that there was substantially no difference in tumor volume between groups, and administration of the test compound was started. The test was conducted with a solvent group and a test compound administration group each having 10 mice. 0.5% methylcellulose was orally administered to the solvent group, and 0.5% methylcellulose mixed with the test compound was orally administered to the test compound administration group. The administration was performed according to the regimen described in Table 4, and the tumor diameter and the body weight were measured twice a week. The following expression was used for calculation of the tumor volume. [tumor volume (mm^3)]=[tumor major diameter (mm)]×[tumor minor diameter (mm)]^2×0.5
The relative tumor growth inhibition (%) of the test compound was calculated, where the tumor volume of the test compound administration group immediately before the start of administration was set to 100% inhibition, and the tumor volume of the solvent group on the day after the last administration was set to 0% inhibition. […] In the table, Ex represents the number of each Example described below.

The target in experiment [2] is human recombinant DGK ξ (Homo sapiens (Human), UniProt Q13574). Kind of experiment: Evaluation of DGK ξ inhibitory effect (ADP-Glo Kinase Assay). The format is biochemical. How it is done: Test Example 1: Evaluation of DGK ξ Inhibitory Effect
The inhibitory effect of a test compound on human recombinant DGK ξ (Carna Biosciences, Inc., 12-410-20N) was examined by the following method in which detection is performed with ADP-Glo™ Kinase Assay (Promega Corporation).
To a 384-well plate (Greiner Bio-One Co., Ltd.), 3 μL of a […] dissolved in an assay buffer (40 mM Tris-HCl pH 7.5, 10 mM MgCl2, 1 mM dithiothreitol (DTT) and 0.1 mg/mL bovine serum albumin (BSA)) (90 ng/mL) was added, and 3 μL of the test compound diluted with the same assay buffer was added so that an intended final concentration was obtained. The mixture was left standing at room temperature for 15 minutes, 3 μL of a substrate (150 μM 1-oleoyl-2-acetyl-sn-glycerol (Sigma-Aldrich Co. LLC.), 480 μM phosphatidylserine (Avanti Polar Lipids, Inc.) and 150 μM UltraPure-ATP (attached to ADP-Glo)) was then added, and the mixture was left standing at room temperature for 30 minutes to react. Thereafter, 3 μL of an ADP-Glo Reagent was added, and the mixture was left standing at room temperature for 40 minutes to stop the enzyme reaction. Further, 6 μL of a Kinase-Detection Reagent was added, the mixture was left standing at room temperature for 30 minutes, and the luminescence was then measured using ARVO X3 (PerkinElmer, Inc.). The half maximal inhibitory concentration (IC50) was calculated by Sigmoid-Emax model non-linear regression analysis, where the signal value in solvent treatment was set to 0% inhibition and the signal value without addition of the DGK ξ enzyme was set to 100% inhibition. […] In the table, Ex represents the number of each Example described below. Also, in the table, compound C (cpd. C) represents the test compound of the Example 199 described in the international publication WO 2008/054702.
In general terms: ADP-Glo turns the ADP formed in a reaction into a luminescent signal.

Experiment [3] deals with Jurkat E6.1 cells. Put plainly: Evaluation of IL-2 production in human T cell leukemia cell line Jurkat E6.1 (TCR stimulation anti-CD3/anti-CD28). The format is cell-based. The note with it: concentration at which IL-2 increased to 10 times the solvent control, Jurkat E6.1, anti-CD3/anti-CD28, 24 hours, read-out: EC10fold. The procedure: Test Example 2: Evaluation of IL-2 Production in Human T Cell Leukemia Cell Line Jurkat E6.1
The effect of the test compound on the IL-2 production by T cell receptor (TCR) stimulation (anti-CD3/anti-CD28) in Jurkat E6.1 cells (ECACC, 88042803) was evaluated.
A 5 μg/mL anti-CD3 antibody (eBioscience, Inc., OKT3 clone) diluted with phosphate buffer saline (PBS) was added to a 96-well plate (Iwaki & Co., Ltd.) at 50 μL/well, and left standing at 4° C. for 12 hours or more to provide an anti-CD3 antibody-coated plate in advance. When the plate was used for experiments, the plate was washed with 200 μL of PBS once, an anti-CD28 antibody (eBioscience, Inc., 28.2 clone) diluted to a concentration of […] with a culture medium (RPMI1640 (Sigma-Aldrich Co. LLC.) containing 10% fetal bovine serum (Hyclone Laboratories, Inc.)) was then added at 10 μL/well, and the plate was used for assay as a culture plate for TCR stimulation.
Subsequently, the test compound was mixed with Jurkat E6.1 cells in such a manner that an intended final concentration was obtained, and the mixture was plated at 90 μL/well so that the number of cells per well was 1×10^5 (that is, finally the culture was performed at 1×10^5 cells/100 μL/well). For culture cell conditions, the culture was performed at 37° C. in the presence of 5% CO2 using RPMI1640 medium containing 10% fatal bovine serum.
After 24 hours, the culture supernatant was collected, and IL-2 was quantitatively determined using AlphaLISA human IL2 Immunoassay Research Kit (PerkinElmer, Inc.). The IL-2 measurement was performed under Alpha Screen standard setting conditions (the fluorescence intensity at 570 nm was measured with an excitation wavelength of 680 nm) using EnVision 2104-0010 and EnVision 2104-0020 (PerkinElmer, Inc.). The IL-2 quantitative value of the solvent treatment control was set to 1, and the test compound concentration at which the IL-2 quantitative value of the test compound treatment sample increased to 10 times the IL-2 quantitative value of the control (EC10fold) was calculated by inverse estimation with the aid of Sigmoid-Emax model non-linear regression analysis. […] In the table, Ex represents the number of each Example described below.

Experiment [4] has as its system MC38 cells. Kind of experiment: Antitumor effect in syngeneic mouse model bearing mouse colon adenocarcinoma cell line MC38. Type of experiment: in vivo. As to conditions: relative tumor growth inhibition, MC38, C57BL/6J mice, oral, twice a day day 1-10 and once on day 11. The procedure: Test Example 3: Evaluation of Antitumor Effect in Syngeneic Mouse Model Bearing Mouse Colon Adenocarcinoma Cell Line MC38
A cell suspension liquid prepared by suspending MC38 cells (supplied from National Cancer Institute) in PBS at 4.0×10^6 cells/mL was subcutaneously inoculated into 6-week-old female mice (C57BL/6J from Charles River Laboratories Japan, Inc.) in a volume of 50 μL. 4 days after the inoculation, the mice were grouped in such a manner that there was substantially no difference in tumor volume between groups, and administration of the test compound was started. The test was conducted with a solvent group and a test compound administration group each having 10 mice. 0.5% methylcellulose (Shin-Etsu Chemical Co., Ltd.) was orally administered to the solvent group, and 0.5% methylcellulose mixed with the test compound was orally administered to the test compound administration group. The administration was performed twice a day from day 1 to day 10 and once a day on day 11, and the tumor diameter and the body weight were measured twice a week. The following expression was used for calculation of the tumor volume. [tumor volume (mm^3)]=[tumor major diameter (mm)]×[tumor minor diameter (mm)]^2×0.5
The relative tumor growth inhibition (%) of the test compound was calculated, where the tumor volume of the test compound administration group immediately before the start of administration was set to 100% inhibition, and the tumor volume of the solvent group on the last day of administration was set to 0% inhibition. […] In the table, Ex represents the number of each Example described below.

Where [5] appears, read: 0.1 mg/kg, 1/day, 8 days, 1 × 10^5 cells inoculated.

Structures are written as SMILES. Structures can show the parent of a compound that is named as a salt.

Chain of human recombinant DGK ξ (Q13574 whole entry): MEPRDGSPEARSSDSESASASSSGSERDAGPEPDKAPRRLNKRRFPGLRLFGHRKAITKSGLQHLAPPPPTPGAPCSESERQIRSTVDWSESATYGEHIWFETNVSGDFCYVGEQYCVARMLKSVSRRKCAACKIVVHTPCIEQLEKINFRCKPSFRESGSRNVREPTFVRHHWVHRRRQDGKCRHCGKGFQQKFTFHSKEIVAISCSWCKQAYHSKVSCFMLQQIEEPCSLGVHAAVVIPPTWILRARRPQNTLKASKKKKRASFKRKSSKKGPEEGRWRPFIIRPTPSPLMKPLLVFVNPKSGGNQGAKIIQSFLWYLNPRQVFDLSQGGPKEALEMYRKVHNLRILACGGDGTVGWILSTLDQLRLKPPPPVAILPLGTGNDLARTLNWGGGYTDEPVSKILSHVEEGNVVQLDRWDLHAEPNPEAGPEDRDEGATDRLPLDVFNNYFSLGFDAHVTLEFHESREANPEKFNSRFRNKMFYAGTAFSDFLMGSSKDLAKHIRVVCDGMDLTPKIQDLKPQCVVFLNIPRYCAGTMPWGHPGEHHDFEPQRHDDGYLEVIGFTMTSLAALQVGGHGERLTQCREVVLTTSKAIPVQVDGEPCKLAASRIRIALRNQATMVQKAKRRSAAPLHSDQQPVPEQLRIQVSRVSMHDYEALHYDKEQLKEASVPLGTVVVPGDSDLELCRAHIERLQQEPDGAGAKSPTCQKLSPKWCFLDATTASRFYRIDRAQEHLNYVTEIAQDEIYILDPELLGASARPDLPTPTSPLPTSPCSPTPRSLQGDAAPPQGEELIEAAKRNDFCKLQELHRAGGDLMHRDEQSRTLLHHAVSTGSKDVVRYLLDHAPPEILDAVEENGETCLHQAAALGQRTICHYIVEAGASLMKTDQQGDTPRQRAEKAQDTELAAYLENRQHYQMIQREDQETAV

One may read the IC50 as the midpoint of a concentration-inhibition curve. `CN(C)[C@@H]1CCN2CCN(c3c(NC(=O)c4csc(-c5ccnnc5)n4)ccc(Oc4ccccc4)c3C(F)(F)F)C[C@@H]12` [Example 80] yielded an Antitumor effect in experiment [1] (0.03 mg/kg, 1/day, 10 days, 1 × 10^5 cells inoculated) of 30% Inhibition. For the same compound, in experiment [2], the IC50 amounted to 0.7 nM. Moreover, the EC50 in experiment [3] was 5 nM.
With `N[C@@H]1CCN2CCN(c3c(NC(=O)c4csc(-c5ccnnc5)n4)ccc(Oc4ccccc4)c3C(F)(F)F)C[C@@H]12` [Example 78, N-{2-[(8R,8aS)-8-aminohexahydropyrrolo[1,2-a]pyrazine-2(1H)-yl]-4-phenoxy-3-(trifluoromethyl)phenyl}-2-(pyridazin-4-yl)-1,3-thiazole-4-carboxamide], in experiment [1] (0.3 mg/kg, 1/day, 10 days, 1 × 10^5 cells inoculated), the Antitumor effect is given as 30% Inhibition. For the same compound, the IC50 in experiment [2] was 5 nM. The EC50 in experiment [3] was determined as 27 nM.
As to `CNC[C@@H]1CCCN(c2c(NC(=O)c3csc(-c4ccnnc4)n3)ccc(Oc3ccccc3F)c2C(F)(F)F)C1.Cl` [Example 10], the Antitumor effect in experiment [4] (4.7 mg/kg) amounted to 60% Inhibition; in experiment [1] (setting [5]) it was 42% Inhibition. Also, the IC50 in experiment [2] came to 8 nM. Besides, in experiment [3], the EC50 worked out at 173 nM.
Consider `NC[C@H]1CCCN1c1c(NC(=O)c2csc(-c3ccnnc3)n2)ccc(Oc2ccccc2)c1C(F)(F)F` [Example 34], for which the Antitumor effect is 55% Inhibition in experiment [4] (5 mg/kg) and 48% Inhibition in experiment [1] (1.5 mg/kg, 2/day, 10 days, 5 × 10^5 cells inoculated). The IC50 in experiment [2] is 12 nM. In addition, in experiment [3], the EC50 was 30 nM.
Consider `NC[C@@H]1CCCN(c2c(NC(=O)c3csc(-c4ccnnc4)n3)ccc(Oc3ccccc3)c2C(F)(F)F)C1` [Example 9, N-{2-[(3S)-3-(aminomethyl)piperidin-1-yl]-4-phenoxy-3-(trifluoromethyl)phenyl}-2-(pyridazin-4-yl)-1,3-thiazole-4-carboxamide], for which the Antitumor effect was found to be 64% Inhibition in experiment [4] (5 mg/kg) and 36% Inhibition in experiment [1] (0.5 mg/kg, 2/day, 10 days, 5 × 10^5 cells inoculated). Moreover, the IC50 in experiment [2] was found to be 8 nM. Besides, the EC50 in experiment [3] turned out to be 18 nM.
`COCCN1CCC2(CC1)CN(c1c(NC(=O)c3csc(-c4ccnnc4)n3)ccc(Oc3ccccc3)c1C(F)(F)F)CCO2` [Example 59, N-{2-[9-(2-methoxyethyl)-1-oxa-4,9-diazaspiro[5.5]undecan-4-yl]-4-phenoxy-3-(trifluoromethyl)phenyl}-2-(pyridazin-4-yl)-1,3-thiazole-4-carboxamide dihydrochloride] displayed an Antitumor effect in experiment [1] (setting [5]) of 46% Inhibition. Further, in experiment [2], the IC50 was determined as 2 nM. For the same compound, the EC50 in experiment [3] was determined as 36 nM.
`NC[C@@H]1CCCN(c2c(NC(=O)c3csc(-c4ccnnc4)n3)ccc(Oc3cccc(F)c3)c2C(F)(F)F)C1` [Example 11]: in experiment [4] (5 mg/kg), the Antitumor effect is 63% Inhibition. Also, the IC50 in experiment [2] amounted to 19 nM. Also, in experiment [3], the EC50 came out at 32 nM.
The like results for `NC[C@@H]1CCCN(c2c(NC(=O)c3csc(-c4ccnnc4)n3)ccc(Oc3ccccc3F)c2C(F)(F)F)C1` [Example 33] were, in that order, 36% Inhibition, 5 nM and 9 nM.
In the case of `N[C@@H]1CCN2CCN(c3c(NC(=O)c4csc(-c5ccnnc5)n4)ccc(OC4CC4)c3C(F)(F)F)C[C@@H]12` [Example 76], the IC50 in experiment [2] was determined as 6 nM.
On to `NC[C@@H]1CCCN(c2c(NC(=O)c3csc(-c4ccnnc4)n3)ccc(Oc3cccc(Cl)c3)c2C(F)(F)F)C1` [Example 40], for which the IC50 in experiment [2] stood at 50 nM.
As to `NC[C@@H]1CCCN(c2c(NC(=O)c3csc(-c4ccnnc4)n3)cc(F)c(Oc3ccccc3)c2F)C1` [Example 24], the IC50 in experiment [2] is 11 nM.
Regarding `NC[C@@H]1CCCN(c2c(NC(=O)c3csc(-c4ccnnc4)n3)ccc(Oc3ccccn3)c2C(F)(F)F)C1` [Example 39], the IC50 in experiment [2] came out at 7 nM.
In the case of `CN(C)[C@H]1CCN2CCN(c3c(NC(=O)c4csc(-c5ccnnc5)n4)ccc(Oc4ccccc4)c3C(F)(F)F)C[C@H]12` [Example 81], in experiment [2], the IC50 came to 152 nM.
Same read-out and setting: then `NC[C@@H]1CCCN(c2c(NC(=O)c3csc(-c4ccnnc4)n3)ccc(Oc3ccccc3Cl)c2C(F)(F)F)C1` [Example 35], with 2 nM; and `CNC[C@H]1CN(c2c(NC(=O)c3csc(-c4ccnnc4)n3)ccc(Oc3ccccc3)c2C(F)(F)F)CCN1C` [Example 6, N-[2-{(3S)-4-methyl-3-[(methylamino)methyl]piperazin-1-yl}-4-phenoxy-3-(trifluoromethyl)phenyl]-2-(pyridazin-4-yl)-1,3-thiazole-4-carboxamide], with 3 nM; and `NC[C@@H]1CCCN(c2c(NC(=O)c3csc(-c4ccnnc4)n3)ccc(OC3CCC3)c2C(F)(F)F)C1` [Example 14], with 13 nM.

(Values after patent US12227517B2, “Pyridazinyl-thiazolecarboxamide compound” (Astellas Pharma Inc., priority 2019, dated 2025).)
